Data taken from patent EP4566594A1, “LIPID NANOPARTICLES COMPRISING LONG-CHAIN CERAMIDE AND COMPOSITION FOR CELL DEATH COMPRISING SAME” (Croda Korea Limited, priority 2022, dated 2024).

How the values were obtained:
[1] = Solubility of C18-ceramide itself in aqueous solution; format: physicochemical; settings: without lipid nanoparticles
MDA-MB-468 cells = test: Cell viability, WST-8 reagent, absorbance at 450nm; format: cell-based; settings: ceramide alone dispersed in aqueous solution in the same amount as in Examples 1 and 2, column purified
Method: (§1) MDA-MB-231 and MDA-MB-468 cells were cultured at 37°C under 10% fetal bovine serum (FBS) and ATCC modified RPMI medium (Gibco) supplemented with 1% penicillin/streptomycin, 5% CO2.
(§2) For experiments, lipid nanoparticles prepared at each concentration of C18-ceramide were respectively treated (the number of particles: 4.5 x 10^8 ± 2.05 x 10^8) to MDA-MB-231 and MDA-MB-468 cells which were inoculated into a 96-well plate (1.5 x 10^3 cells/well). After 24 hours of incubation, WST-8 reagent (Dojindo) was added to the medium at 37°C for 1 hour. Absorbance was measured at 450nm using a microplate reader (BioTek). Thereafter, cell viability was confirmed by measuring absorbance every 24 hours.
In addition, the cell viability of MDA-MB-468 cells was reduced to 53% when lipid nanoparticles of 5 mM C18-ceramide were treated (FIG. 9b).

MDA-MB-231 cells = test: Cell viability, WST-8 reagent, absorbance at 450nm; format: cell-based; settings: ceramide alone dispersed in aqueous solution in the same amount as in Examples 1 and 2, column purified
Method: as §1, §2

[2] = tested on: apoptosis-related proteins (BAX, BAD, BCL2, and cleaved caspase3); test: Western blotting of apoptosis-related proteins in MDA-MB-468 cells; format: cell-based; settings: ceramide alone dispersed in aqueous solution in the same amount as in Examples 1 and 2, column purified
Method: MDA-MB-468 cells were cultured in ATCC modified RPMI medium (Gibco) supplemented with 10% fetal bovine serum (FBS) and 1% penicillin/streptomycin at 37°C under 5% CO2.
For experiments, MDA-MB-468 cells were seeded onto 60 mm^2 cell culture plates (1.3 x 10^6 cells/plate). After 24 hours, LNP prepared at different concentrations of C18-ceramide was calculated and added to 2.5 mL opti-MEM medium per well such that 2.48 x 10^11±2.75 x 10^10 particles were included in the medium. The medium containing LNP was treated and incubated at 37°C for 24 hours.
Thereafter, the cells were collected, and western blotting was performed. For this purpose, MDA-MB-468 cells treated with LNP were lysed in RIPA buffer containing a protease inhibitor and a phosphatase inhibitor (Sigma). Total cell lysates were quantified using the BCA protein assay kit (Thermo Scientific). Next, the cell lysate (50 µg) was loaded on a 4-15% gradient SDS-PAGE gel (Biorad) under denaturing conditions and transferred to a PVDF membrane (iBlot2 Dry Blotting System, Thermo Scientific). […]
The secondary antibody conjugated with HRP was reacted at room temperature for 2 hours, and then the membrane was treated with Western ECL, and the luminescence image was analyzed using LAS500 (GE Healthcare), and the results are shown in FIG. 10.

## CCCCCCCC/C=C\CCCCCCCC(=O)N[C@@H](CO)[C@H](O)[C@H](O)CCCCCCCCCCCCCC (stereo in doubt) [C18-ceramide, N-Oleoyl-phytosphingosine]
[1]
  solubility in an aqueous solution: insoluble
MDA-MB-468 cells
  cell survival rate: no change
MDA-MB-231 cells
  cell survival rate: no change
[2]
  antitumor-related protein expression: no change
